Experimental data as given in patent US12678438B2, “Treatment of cancer with CDK inhibitors” (THE TRUSTEES OF THE UNIVERSITY OF PENNSYLVANIA, priority 2019, dated 2026).

Columns and labels:
[1] = system: MED1 and AR recruitment to the chromatin; assay: ChIP-seq of genome-wide MED1 and AR binding; assay type: cell-based, human; conditions: DHT-treated VCaP and LNCaP, THZ1
Procedure: ChIP was performed using iDeal ChIP-seq Kit for Transcription Factors (Diagenode, C01010170) according to manufacturer's protocol. In brief, the cells were crosslinked with 1% formaldehyde in culture medium for 10 min at room temperature. Cross-linking was terminated by the addition of 1/10 volume 1.25 M glycine for 5 min at room temperature followed by cell lysis and sonication (Bioruptor, Diagenode), resulting in an average chromatin fragment size of 200 bp. Chromatin equivalent to 5×10^6 cells was isolated and incubated with 10 μg antibody overnight at 4° C. (MED1, H3-acetyl K27, AR, and IgG (Diagenode). ChIP-seq libraries were prepared from the ChIP-enriched DNA samples using the TruSeq ChIP Library Preparation Kit (Illumina, IP-202-1012, IP-202-1024) and protocol. In brief, ChIP-enriched DNA (1-10 ng) was converted to blunt-ended fragments. A single A-base was added to fragment ends followed by ligation of Illumina adaptors. The adaptor-modified DNA fragments were enriched by PCR using the Illumina Barcode primers and Phusion DNA polymerase. PCR products were size selected using 3% NuSieve agarose gels (Lonza) followed by gel extraction using QIAEX II reagents (QIAGEN). Libraries were quantified with the Bioanalyzer 2100 (Agilent) and sequenced on the Illumina NextSeq 500 Sequencer (75 nucleotide read length).
Sequencing reads were quality checked with FASTQC (www.bioinformatics.babraham.ac.uk/projects/fastqc) and aligned to the GRCh37 (release 27) genome using the STAR v2.5.1 aligner with default settings. PCR duplicate reads in the aligned bam files were removed using samtools, bam files were converted to CPM normalized bigwig tracks using deeptools, and viewed using the Integrated Genomics Viewer or the UCSC genome browser. Single end reads were extended up to the fragment length (200 bp) along the read direction.
The enrichment peaks for the various transcription factors and histone marks were computed using MACS2, with default settings. Regions found to ubiquitously enriched across a number of next-generation sequencing experiments, also known as the blacklisted peaks (sites.google.com/site/anshulkundaje/projects/blacklists), were excluded in all subsequent analysis.

[2] = system: AR target proteins (ERG, MYC, PSA); assay: Immunoblot of AR target proteins; assay type: cell-based, human
Procedure: Cell lysates were prepared with RIPA buffer (Boston Bioproducts, BP-115DG)-10 mM Tris-HCl pH 7.5, 1 mM EDTA, 400 mM NaCl, 0.5% NP-40 and 1 mM DTT, supplemented with protease inhibitor cocktail (Pierce, A32965) and phosphatase inhibitor (Thermo, 1861280). For immunoblotting 200 μg total protein extract was boiled in sample buffer and 15-25 μg aliquots were separated by SDS-PAGE and transferred onto Polyvinylidene Difluoride membrane (GE Healthcare, IPVH00010). The membrane was incubated for one hour in blocking buffer [Tris-buffered saline, 0.1% Tween (TBS-T), 5% nonfat dry milk followed by overnight incubation on a rocker at 4° C. with the primary antibody. Following a wash with TBS-T, the blot was incubated with horseradish peroxidase-conjugated secondary antibody for 2 hrs on a rocker at room temperature. The blots were washed again and signals were visualized using enhanced chemiluminescence system as per manufacturer's protocol (GE Healthcare) or Kwik Quant Imager (Kindle Biosciences). […]

CN(C)C/C=C/C(=O)Nc1ccc(C(=O)Nc2cccc(Nc3ncc(Cl)c(-c4c[nH]c5ccccc45)n3)c2)cc1 [THZ1]
genome-wide AR recruitment (ChIP-seq) [1]: significantly limited AR recruitment | genome-wide MED1 recruitment (ChIP-seq) [1]: blocked MED1 recruitment entirely | AR target protein expression ([2]; LNCaP and VCaP): decreased AR target protein expression | ERG levels ([2]; VCaP, dose and time-dependent): reduction in ERG levels
